Results from PMC10010340, “The Wnt Pathway Inhibitor RXC004 Blocks Tumor Growth and Reverses Immune Evasion in Wnt Ligand–dependent Cancer Models” (Cancer Research Communications, 2022).

What was measured:
HPAF-II xenograft = assay: In vivo 18FDG-PET biodistribution; set-up: species or system mouse (NOD-SCID); conditions: 5 mg/kg once daily, 7-day dosing
Protocol: Experiment was performed at Medicines Discovery Catapult. SNU-1411 (1 × 10^7 cells; NOD-SCID mice) or HPAF-II (1 × 10^7 cells; NOD-SCID mice) were implanted subcutaneously and treatment with RXC004 (5 mg/kg once daily) or vehicle commenced when tumors reached approximately 200 mm^3. Mice were imaged prior to dosing, day 3 and day 7 after dosing. A 10 MBq injection of ^18FDG (PETNET), with a 45-minute washout was followed by a 20-minute PET scan using a Siemens Inveon PET scanner. Tissues removed on day 7 for biodistribution analysis were assessed using a PerkinElmer Wallac Wizard Gamma counter.

[1] = tested on: cell lines with mutations in downstream Wnt signaling; assay: Proliferation, 5 days, ATPLite; format: cell-based, human; conditions: concentration-series
Protocol: (§1) Cells were treated with a concentration-series of RXC004 for 5 days and proliferation measured using ATPLite 1-Step Reagent (Perkin Elmer #6016731). Data were normalized to DMSO-treated controls and IC50 values determined. Colorectal cell lines used were: WiDR (APC-E853*/T1556fs*3), HCT116 (β-cateninΔSer45; RNF43-R117fs*41), JVE-109 (RNF43-V211fs*47/G659fs*41), SNU-1411 (PRPTK-RSPO-3 fusion). Pancreatic cell lines were: CAPAN-2 (RNF43-R330fs*89), AsPC1 (RNF43-S720*), and HPAF-II (RNF43-E174*). Cell lines were from ATCC, except for SNU-1411 (Korean Cell Line Bank) and cultured for no more than 20 passages. Cells were routinely tested for Mycoplasma by the MycoAlert test (Lonza) and authenticated using short tandem repeat fingerprinting.

[2] = tested on: cell lines with RNF43 mutations and RSPO3 fusions; assay: Proliferation, 5 days, ATPLite; format: cell-based, human; conditions: concentration-series
Protocol: as §1

SNU-1411 xenograft = assay: Xenograft pilot study; format: in vivo, mouse (NOD-SCID); conditions: SNU-1411, 1.5 mg/kg twice daily oral
Protocol: The in vivo pilot studies were performed at Axis Bioservices. HPAF-II (5 × 10^6 cells; athymic nude mice), AsPC1 (3 × 10^6 cells; athymic nude mice), and SNU-1411 (1 × 10^7 cells; NOD-SCID mice) were implanted bilaterally, subcutaneously, whereas HCT116 (3 × 10^6 cells; athymic nude mice) were implanted in a single flank. Animals were randomized into the indicated groups and treatment initiated once tumor volumes reached approximately 100–150 mm^3. Dosing was either 1.5 mg/kg twice daily RXC004 for 7–13 days then once daily for the remainder of study (up to 29 days), or 28 days 1.5 mg/kg twice daily RXC004 for HCT116. In these and all other animal studies, unless otherwise specified, RXC004 was dosed orally in 0.5% carboxymethylcellulose + 0.1% Tween-80. For AsPC1, an ascites model, end of study tumor weight (mg) was measured. A total of 12 hours after the final dose, RNA was extracted [GenElute RNA isolation kit (#RTN70, Sigma)] from snap frozen tumor for qRT-PCR expression analysis of Axin2, c-Myc, RNF43, MUC4, and MUC5AC relative to appropriate housekeepers.

HPAF-II cells = assay: Cell-cycle analysis, phospho-Ser10 histone H3 flow cytometry; format: cell-based, human; conditions: 100 nmol/L, representative plot (DMSO 2.03%)
Protocol: For concentration–response effects on gene expression, Single-Shot Cell Lysis kit (Bio-Rad #172-5080) was used for RNA extraction, data were normalized to DMSO-treated controls, and IC50 values determined. For cell-cycle analysis, the cancer cell line panel was treated with RXC004 (100 nmol/L) or DMSO (0.1%) for 3 days. Cell-cycle profiles were determined by staining with propidium iodide (Thermo Fisher Scientific #P3566) and phospho-Ser10-Histone-H3 (AlexaFluor-647, BioLegend #650806), and quantified using an Agilent Novocyte-3000 flow cytometer. For in vitro growth curve analysis, HPAF-II and SNU-1411 cells were seeded in 96-well plates at 2,000 cells/well and imaged on the IncuCyte (Sartorius) at 10× magnification with 4 fields of view per well. Total cell object count over time was calculated using the Adherent Cell-by-Cell analysis module.

Lipophilicity (logD7.4) = format: physicochemical
Protocol: Lipophilicity (logD7.4): A total of 30 μL of a 20 mmol/L stock solution of RXC004 was added to a vial containing 1.5 mL of pH7.4 phosphate buffer saturated octanol and 1.5 mL of octanol-saturated pH7.4 phosphate buffer, shaken and centrifuged to ensure phase separation. logD7.4 was calculated as the logarithm of the ratio of the concentration of RXC004 (measured by LC-UV in octanol vs. buffer phase).

MDR1 = assay: Permeability in MDR1-MDCKII cells; format: in vitro ADME; conditions: dog, MDCK-MDR1, 10 μmol/L, 2 hours
Protocol: (§2) Permeability of RXC004 was assessed in MDR1-MDCKII (Netherlands Cancer Institute) and Caco-2 cells (Merck Life Sciences). RXC004 (10 μmol/L) was added to either apical or basolateral chamber for 2 hours at 37°C, then an aliquot from the opposite side of the monolayer was removed and quantified by LC/MS-MS. Apparent permeability (Papp) was calculated according to standard practice ([20]).

MDR1-MDCKII cells = assay: Permeability in MDR1-MDCKII cells; format: in vitro ADME; conditions: MDR1-MDCKII cells
Protocol: as §2

Cc1c(-c2ccnc(C(F)(F)F)c2)ncn1CC(=O)Nc1ccc(-c2cnccn2)cn1 [RXC004, 2-[5-methyl-4-[2-(trifluoromethyl)-4-pyridyl]imidazol-1-yl]-N-(5-pyrazin-2-yl-2-pyridyl)acetamide]
18FDG tumor:blood ratios (HPAF-II xenograft): significant decrease in tumor:blood ratios
proliferation [1]: had no effect
proliferation [2]: inhibited proliferation
Wnt-responsive gene expression in tumor including c-Myc (SNU-1411 xenograft): inhibition of Wnt-responsive gene expression
tumor growth (SNU-1411 xenograft): reduction in tumor growth
pH3+ (percentage phospho-Ser10 histone H3 positive cells) (HPAF-II cells): 0.28%
logD (Lipophilicity (logD7.4); octanol/phosphate buffer, pH 7.4, pH 7.4, octanol/phosphate buffer, read-out: Measured log D7.4): 2.4
Measured log D7.4 (Lipophilicity (logD7.4); pH 7.4, octanol/phosphate buffer): 2.44
Papp A→B at 2 h, 10 μmol/L (MDR1; apical to basolateral, read-out: MDCK PappA-B): 15 ×10⁻⁶ cm/s
Papp B→A at 2 h, 10 μmol/L (MDR1; basolateral to apical, read-out: MDCK PappB-A): 51.9 ×10⁻⁶ cm/s
efflux (MDR1-MDCKII cells): some evidence of efflux in MDR1-MDCKII cells
